Article PMC2528936, “Snake Cathelicidin from Bungarus fasciatus Is a Potent Peptide Antibiotics” (PLoS ONE, 2008)
Like-named read-outs stand apart in the source and are kept apart here. Where no end group is shown, it is not given here.

Columns and labels:
Bacillus subtilis = assay: microbe, parasite or virus in culture; settings: liquid LB broth, no visible growth; mean of three independent experiments in duplicates; ND = no detectable activity
Method: (§1) Antimicrobial activities of cathelicidin-BF and cathelicidin-BF15 ([…]) were tested according to our previous methods [39]–[42]. […] The details were provided in the Materials and Methods S1.
(§2) Standard and clinically isolated microorganism strains were used for antimicrobial assays. Bacteria were first grown in LB (Luria-Bertani) broth to an OD600 nm of 0.8. A 10 µl aliquot of the bacteria was then taken and added to 8 ml of fresh LB broth with 0.7% agar and poured over a 90 mm Petri dish containing 25 ml of 1.5% agar in LB broth. After the top agar hardened, a 20 µl aliquot of the test sample filtered on a 0.22 µm Millipore filter was dropped onto the surface of the top agar and completely dried before being incubated overnight at 37 °C. If the sample examined had antimicrobial activity, a clear zone would be formed on the surface of the top agar representing inhibition of bacterial growth. Minimal inhibitory concentration (MIC) was determined in liquid LB medium by incubating the bacteria in LB broth with variable amounts of the sample tested. The MIC at which no visible growth occurred was recorded. In the assays of anti-fungi activity, for strains of Aspergillus terreus, A. niculans, and Chaetomium globosum, the fungal spore concentration was first counted under a microscope. The fungi with an initial concentration of 10^5 spores/ml were cultured with variable amounts of the sample tested in yeast extract-peptone-dextrose broth.

[1] = test system: Staphylococcus aureus ATCC2592; assay: microbe, parasite or virus in culture; settings: standard strain; liquid LB broth, no visible growth; mean of three independent experiments in duplicates; ND = no detectable activity
Method: as §1, §2

Bacillus pumilus = assay: microbe, parasite or virus in culture; settings: liquid LB broth, no visible growth; mean of three independent experiments in duplicates; ND = no detectable activity
Method: as §1, §2

[2] = test system: Pseudomonas aeruginosa ATCC27853; assay: microbe, parasite or virus in culture; settings: standard strain; liquid LB broth, no visible growth; mean of three independent experiments in duplicates; ND = no detectable activity
Method: as §1, §2

[3] = test system: Acinetobacter calcoaceticus; assay: microbe, parasite or virus in culture; settings: liquid LB broth, no visible growth; mean of three independent experiments in duplicates; ND = no detectable activity
Method: as §1, §2

Bacillus cereus = assay: microbe, parasite or virus in culture; settings: liquid LB broth, no visible growth; mean of three independent experiments in duplicates; ND = no detectable activity
Method: as §1, §2

[4] = test system: Escherichia coliATCC25922; assay: microbe, parasite or virus in culture; settings: standard strain; liquid LB broth, no visible growth; mean of three independent experiments in duplicates; ND = no detectable activity
Method: as §1, §2

[5] = Serum stability, residual antimicrobial activity; assay type: in vitro ADME; settings: 100 µg/ml peptide, 90% fresh normal human serum, 37°C, 0-24 hours; residual activity against E. coli 08A866 by radial diffusion assay
Method: For cathelicidin-BF, antimicrobial activities against E. coli 08A866 could not be detected after 3 h-incubation, while cathelicidin-BF15 could keep its antimicrobial activity up to 10 h in 90% fresh normal human serum.

[6] = test system: Salmonella typhi (IS, DR); assay: MIC determination; assay type: cell-based; settings: clinically isolated strain, drug resistance for ampicillin and benzylpenicillin; liquid LB broth; mean of three independent experiments in duplicates; ND = no detectable activity
[7] = test system: Enterococcus faecium (IS, DR); settings: clinically isolated strain, drug resistance for ampicillin and benzylpenicillin; liquid LB broth; mean of three independent experiments in duplicates; ND = no detectable activity
Method: as §1, §2

Chaetomium globosum = settings: saprophytic fungus; 10^5 spores/ml, yeast extract-peptone-dextrose broth; mean of three independent experiments in duplicates; ND = no detectable activity
Method: as §1, §2

Pseudomonas luteola = settings: liquid LB broth, no visible growth; mean of three independent experiments in duplicates; ND = no detectable activity
Method: as §1, §2

P. aeruginosa (IS, DR) = settings: clinically isolated strain, drug resistance for ampicillin and benzylpenicillin; liquid LB broth; mean of three independent experiments in duplicates; ND = no detectable activity
Method: as §1, §2

[8] = test system: S. aureus 08031013 (IS, DR); settings: clinically isolated strain, drug resistance for ampicillin and benzylpenicillin; liquid LB broth; mean of three independent experiments in duplicates; ND = no detectable activity
Method: as §1, §2

[9] = test system: E. coli 08031017 (IS, DR); settings: clinically isolated strain, drug resistance for ampicillin and benzylpenicillin; liquid LB broth; mean of three independent experiments in duplicates; ND = no detectable activity
Method: as §1, §2

[10] = test system: S. aureus 08032706 (IS, DR); settings: clinically isolated strain, drug resistance for ampicillin and benzylpenicillin; liquid LB broth; mean of three independent experiments in duplicates; ND = no detectable activity
Method: as §1, §2

Serratia marcescens MA = settings: liquid LB broth, no visible growth; mean of three independent experiments in duplicates; ND = no detectable activity
Method: as §1, §2

[11] = test system: S. aureus 08032712 (IS, DR); settings: clinically isolated strain, drug resistance for ampicillin and benzylpenicillin; liquid LB broth; mean of three independent experiments in duplicates; ND = no detectable activity
Method: as §1, §2

[12] = test system: S. aureus 08032810 (IS, DR); settings: clinically isolated strain, drug resistance for ampicillin and benzylpenicillin; liquid LB broth; mean of three independent experiments in duplicates; ND = no detectable activity
Method: as §1, §2

[13] = test system: K. pneumoniae 08040724 (IS, DR); settings: clinically isolated strain, drug resistance for ampicillin and benzylpenicillin; liquid LB broth; mean of three independent experiments in duplicates; ND = no detectable activity
Method: as §1, §2

Aspergillus niculans = settings: saprophytic fungus; 10^5 spores/ml, yeast extract-peptone-dextrose broth; mean of three independent experiments in duplicates; ND = no detectable activity
Method: as §1, §2

[14] = test system: S. aureus 08031002 (IS, DR); settings: clinically isolated strain, drug resistance for ampicillin and benzylpenicillin; liquid LB broth; mean of three independent experiments in duplicates; ND = no detectable activity
Method: as §1, §2

[15] = test system: Sacharibacillus kuerlensis; settings: liquid LB broth, no visible growth; mean of three independent experiments in duplicates; ND = no detectable activity
Method: as §1, §2

[16] = test system: E. coli 08032813 (IS, DR); settings: clinically isolated strain, drug resistance for ampicillin and benzylpenicillin; liquid LB broth; mean of three independent experiments in duplicates; ND = no detectable activity
Method: as §1, §2

[17] = test system: Klebsiella pneumoniae (IS, DR); settings: clinically isolated strain, drug resistance for ampicillin and benzylpenicillin; liquid LB broth; mean of three independent experiments in duplicates; ND = no detectable activity
Method: as §1, §2

[18] = test system: P.aeruginosa 08031014(IS, DR); settings: clinically isolated strain, drug resistance for ampicillin and benzylpenicillin; liquid LB broth; mean of three independent experiments in duplicates; ND = no detectable activity
Method: as §1, §2

[19] = test system: Sphingobacterium siyangense; settings: liquid LB broth, no visible growth; mean of three independent experiments in duplicates; ND = no detectable activity
Method: as §1, §2

[20] = test system: K. pneumoniae 08031012 (IS, DR); settings: clinically isolated strain, drug resistance for ampicillin and benzylpenicillin; liquid LB broth; mean of three independent experiments in duplicates; ND = no detectable activity
Method: as §1, §2

[21] = test system: E. coli 08040722 (IS, DR); settings: clinically isolated strain, drug resistance for ampicillin and benzylpenicillin; liquid LB broth; mean of three independent experiments in duplicates; ND = no detectable activity
Method: as §1, §2

E. coli = settings: for most of E. coli (standard and clinically isolated strains)
Method: as §1, §2

[22] = test system: E. coli 08040726 (IS, DR); settings: clinically isolated strain, drug resistance for ampicillin and benzylpenicillin; liquid LB broth; mean of three independent experiments in duplicates; ND = no detectable activity
Method: as §1, §2

[23] = test system: K. pneumoniae 08040202 (IS, DR); settings: clinically isolated strain, drug resistance for ampicillin and benzylpenicillin; liquid LB broth; mean of three independent experiments in duplicates; ND = no detectable activity
Method: as §1, §2

E. coli 08A866(IS, DR) = settings: clinically isolated strain, drug resistance for ampicillin and benzylpenicillin; liquid LB broth; mean of three independent experiments in duplicates; ND = no detectable activity
Method: as §1, §2

[24] = test system: S. aureus 08A865 (IS, DR); settings: clinically isolated strain, drug resistance for ampicillin and benzylpenicillin; liquid LB broth; mean of three independent experiments in duplicates; ND = no detectable activity
Method: as §1, §2

[25] = test system: Aspergillus terreus GIM3.34; settings: saprophytic fungus; 10^5 spores/ml, yeast extract-peptone-dextrose broth; mean of three independent experiments in duplicates; ND = no detectable activity
Method: as §1, §2

E. coli 08A852 (IS, DR) = settings: clinically isolated strain, drug resistance for ampicillin and benzylpenicillin; liquid LB broth; mean of three independent experiments in duplicates; ND = no detectable activity
Method: as §1, §2

[26] = test system: S. aureus 08A875 (IS, DR); settings: clinically isolated strain, drug resistance for ampicillin and benzylpenicillin; liquid LB broth; mean of three independent experiments in duplicates; ND = no detectable activity
Method: as §1, §2

[27] = test system: P.aeruginosa 08031205(IS, DR); settings: clinically isolated strain, drug resistance for ampicillin and benzylpenicillin; liquid LB broth; mean of three independent experiments in duplicates; ND = no detectable activity
Method: as §1, §2

Serratia marcescens SA = settings: liquid LB broth, no visible growth; mean of three independent experiments in duplicates; ND = no detectable activity
Method: as §1, §2

S. aureus ATCC25923 = assay: MIC determination; assay type: cell-based, Staphylococcus aureus; settings: liquid LB broth, no visible growth; mean of three independent experiments in duplicates; ND = no detectable activity
[28] = test system: mouse macrophage (RAW264.7); settings: up to 400 µg/ml, data not shown
Method: (§3) Cytotoxicity and serum stability were measured according the methods described by Mygind et al. The details were provided in the Materials and Methods S1.
(§4) Hemolysis assays were undertaken using human red blood cells in liquid medium as our previous reoprts. Serial dilutions of the peptide were used, and after incubation at 37 °C for 30 min, the cells were centrifuged and the absorbance in the supernatant was measured at 540 nm. Maximum hemolysis was determined by adding 1% Triton X-100 to a sample of cells. Cytotoxicity was measured according the methods described by Mygind et al, using mouse macrophage (RAW264.7) and tumor cell (HepG2). Serum stability was checked by incubating 100 µg/ml cathelicidin-BF with 90% fresh normal human serum at 37 °C for 0, 1, 2, 3, 6, and 24 hours. Residual antimicrobial activities were measured by performing radial diffusion assays with E. coli 08A866 as described by Mygind et al.

[29] = test system: human liver tumor cell (HepG2); settings: up to 400 µg/ml, data not shown
Method: as §3, §4

For “KFFRKLKKSVKKRAKEFFKKPRVIGVSIPF [cathelicidin-BF]”, the MIC (Bacillus subtilis) was 9.4 µg/mL, the MIC [1] was 4.7 µg/mL and the MIC (Bacillus pumilus) was 9.4 µg/mL. It also gave an MIC [2] of 1.2 µg/mL, an MIC [3] of 2.3 µg/mL and an MIC (Bacillus cereus) of 1.2 µg/mL. The MIC [4] was 2.3 µg/mL, the “incubation time after which antimicrobial activities could not be detected” value [5] was 3 h and the MIC [6] was 1.2 µg/mL. It also gave an MIC [7] of 150 µg/mL, an MIC (Chaetomium globosum) of 37.5 µg/mL and an MIC (Pseudomonas luteola) of 1.2 µg/mL. For the same sequence, the MIC (P. aeruginosa (IS, DR)) was 2.3 µg/mL, the MIC [8] was over 100 µg/mL and the MIC [9] was 2.3 µg/mL. The MIC [10] was over 100 µg/mL, the MIC (Serratia marcescens MA) was over 400 µg/mL and the MIC [11] was over 100 µg/mL. It also gave an MIC [12] of over 100 µg/mL, an MIC [13] of 0.3 µg/mL and an MIC (Aspergillus niculans) of 18.7 µg/mL. It also gave an MIC [14] of over 100 µg/mL, an MIC [15] of 4.7 µg/mL and an MIC [16] of 2.3 µg/mL. It also gave an MIC [17] of 4.7 µg/mL, an MIC [18] of 18.7 µg/mL and an MIC [19] of 9.4 µg/mL. The MIC [20] was 9.4 µg/mL, the MIC [21] was 0.6 µg/mL and the MIC (E. coli) was “lower than 2.3 µg/ml”. It also gave an MIC [22] of 0.6 µg/mL, an MIC [23] of 0.6 µg/mL and an MIC (E. coli 08A866(IS, DR)) of 0.6 µg/mL. For the same sequence, the MIC [24] was over 400 µg/mL, the MIC [25] was 18.7 µg/mL and the MIC (E. coli 08A852 (IS, DR)) was 1.2 µg/mL. The MIC [26] was 75 µg/mL, the MIC [27] was 9.4 µg/mL and the MIC (Serratia marcescens SA) was over 400 µg/mL. The MIC (S. aureus ATCC25923) was over 400 µg/mL, the cytotoxicity [28] was “neither cytotoxic” and the cytotoxicity ([28]; listed as Cathelicidin-BF) was “No hemolytic and cytotoxic activity”. The cytotoxicity [29] was “neither cytotoxic” and the cytotoxicity ([29]; listed as Cathelicidin-BF) was “No hemolytic and cytotoxic activity”.
